Experimental data as given in patent publication US20250313588A1, “NOVEL PYRROLOPYRIMIDINONE CARBOXAMIDE COMPOUND FOR INHIBITING CDK, STEREOISOMER THEREOF OR PHARMACEUTICALLY ACCEPTABLE SALT THEREOF, AND PHARMACEUTICAL COMPOSITION FOR TREATING CANCER, COMPRISING SAME AS ACTIVE INGREDIENT” (Seoul National University R&DB Foundation, priority 2022, published 2025).
Blank lines part the entries; values can stand above or below the compound they belong to.

What was measured:
[1] = Plasma metabolic stability assay (human plasma); settings: for half-life at 5 μM: human, plasma; for plasma stability (in words): summary of Table 1, 'in each group'
Description: (§4) DMSO was used as a diluent to prepare stock solutions of a test substance and a positive control at a concentration of 10 mM. The positive control stock solution was then diluted with 70% acetonitrile to a working concentration of 0.2 mM, and then the test substance stock solution was diluted with 70% acetonitrile to a working concentration of 1 mM. A quench reagent consisted of acetonitrile containing tolbutamide and propranolol (provided as an internal standard).
(§5) Positive control and test substance working solutions were spiked into plasma at a concentration of 1 μM and 5 μM, respectively. A 0-min sample was prepared by adding an 80 μL aliquot of each incubation mixture to 320 μL of the quench reagent to precipitate proteins. The mixture was incubated in a water bath at 37° C. with gentle shaking. Aliquots of 80 μL of each mixture were removed and placed in a clean 96-well plate containing 320 μL of the quench reagent to precipitate proteins at 15, 30, 45, and 60 min and centrifuged (5000×g, 15 minutes). 100 μL of the supernatant was placed in a 96-well assay plate to which 200 μL of ultrapure water had been added in advance, and analyzed by LC-MS/MS.

[2] = Plasma metabolic stability assay (mouse plasma)
Description: as §4, §5

[3] = test system: A549 cells, non-small cell lung cancer cell line; test: Anticancer efficacy in mouse model transplanted with A549 cells; type: in vivo, nude mice; settings: A549 xenograft; for changes in cancer growth: 20 mg/kg oral (SNS-032 intraperitoneal), administered for five days, compared to Y102 and SNS-032 groups; for changes in cancer growth / changes in mouse body weight: 25 days; for changes in mouse body weight / weight of the extracted cancer: 20 mg/kg; for weight of the extracted cancer: day 25
Description: (§1) To evaluate in vivo efficacy in a mouse model transplanted with A549 cells, a non-small cell lung cancer cell line, 1×10^6 A549 cells were transplanted into the right calves of nude mice to form cancer tissue, and then the anticancer efficacy of the new compositions Y106 and Y108 was compared with that of an existing CDK inhibitor Y102 or SNS-032.
The dose was the same for all mice (20 mg/kg), the vehicle, Y102, Y106, and Y108 were administered orally, and only SNS-032 was administered intraperitoneally. These were administered for five days, the size was measured twice a week using calipers to measure the changes in cancer growth and the mouse body weight for 25 days, and on day 25, the cancer tissue was removed to confirm the size and weight thereof.

Huh-7 cells = test: Cell colony forming assay, Huh-7; type: cell-based; settings: Huh-7, 1 μM and 3 μM for 12 hours, 7 to 14 days; compared to Y102 or SNS-032
Description: (§2) To examine the anticancer efficacy of Y106 and Y108 in vitro, a cell colony formation assay was performed in hepatocellular carcinoma cell lines Huh-7 and Hep3B cells.
(§3) 500 cells were seeded into 6-well plates, and then treated with Y102, Y106,Y108, or SNS-032 at 1 μM and 3 μM for 12 hours, the medium was then replaced with fresh medium, and after 7 to 14 days, the cells were stained with 20% methanol+0.5% Crystal Violet for colony staining, and the number of cells was counted for quantitative analysis.

Hep3B cells = test: Cell colony forming assay, Hep3B; type: cell-based; settings: 1 μM and 3 μM for 12 hours, 7 to 14 days, compared to Y102 or SNS-032
Description: as §2, §3

[4] = test system: Hep3B cells, hepatocellular carcinoma cell line; test: Anticancer efficacy in mouse model transplanted with Hep3B cells; type: in vivo, nude mice; settings: Hep3B xenograft; for changes in cancer growth: 20 mg/kg oral (SNS-032 intraperitoneal), compared to Y102 and SNS-032 groups; for changes in cancer growth / changes in mouse body weight: 27 days; for changes in mouse body weight / weight of the extracted cancer: 20 mg/kg; for weight of the extracted cancer: day 27
From the text: as §1, with “using Hep3B” for “in a mouse model transplanted with A549”, “another hepatocellular carcinoma” for “a non-small cell lung cancer”, “3×10^6 Hep3B” for “1×10^6 A549”
The dosage, administration schedule, and administration route were applied in the same manner as in the method performed in the mouse model transplanted with Huh-7 cells in Example 3. After administration of the new compositions and the existing CDK inhibitors, changes in cancer growth and mouse body weight were measured for 27 days, and then on day 27, the cancer tissues were removed to confirm the size and weight thereof.

[5] = test system: Huh-7 cells, hepatocellular carcinoma cell line; test: Anticancer efficacy in mouse model transplanted with Huh-7 cells; type: in vivo, nude mice; settings: Huh-7 xenograft; for changes in cancer growth: 20 mg/kg oral (SNS-032 intraperitoneal), five times a week for two weeks, compared to Y102 and SNS-032 groups; for weight of the extracted cancer: day 14
Description: To evaluate in vivo efficacy, 1×10^7 Huh-7 cells were transplanted into the right calves of nude mice to form cancer tissue, and then the anticancer efficacy of the new compositions Y106 and Y108 was compared with that of an existing CDK inhibitor Y102 or SNS-032.
The dose was the same for all mice (20 mg/kg), the vehicle, Y102, Y106, and Y108 were administered orally, and only SNS-032 was administered intraperitoneally. These were administered five times a week for two weeks, the size was measured twice a week using calipers to measure the changes in cancer growth and the mouse body weight for 14 days, and on day 14, the cancer tissue was removed to confirm the size and weight thereof.

[6] = plasma
Description: as §4, §5

[7] = plasma; remark: listed apart in the source
Description: as §4, §5

Compound: CC(C)C(=O)OC[C@@H]1O[C@H](n2cnc(N)c3c(C(N)=O)c(Br)nc2-3)[C@@H](O)[C@@H]1OC(=O)C(C)C [Compound Y105, (2S,3S,4S,5S)-5-(4-amino-6-bromo-5-carbamoyl-1H-pyrrolo[2,3-d]pyrimidin-1-yl)-4-hydroxy-2-((isobutyryloxy)methyl)tetrahydrofuran-3-yl isobutyrate]
half-life at 5 μM [1]: 20.5 ± 0.34 min
half-life at 5 μM [2]: 2.67 ± 0.2 min

Compound: CCC(C)(C)C(=O)OC[C@@H]1O[C@H](n2cnc(N)c3c(C(N)=O)c(Br)nc2-3)[C@@H](O)[C@@H]1OC(=O)C(C)(C)CC [Compound Y106, (2S,3S,4S,5S)-5-(4-amino-6-bromo-5-carbamoyl-1H-pyrrolo[2,3-d]pyrimidin-1-yl)-2-(((2,2-dimethylbutanoyl)oxy)methyl)-4-hydroxytetrahydrofuran-3-yl 2,2-dimethylbutanoate]
changes in cancer growth [3]: inhibited cancer growth more clearly
changes in mouse body weight [3]: no significant difference
weight of the extracted cancer [3]: least amount of cancer tissue
colony formation (Huh-7 cells): remarkably reduced
half-life at 5 μM [1]: > 720 min
plasma stability (in words) [1]: highest stability
colony formation (Hep3B cells): remarkably reduced
changes in cancer growth [4]: inhibited cancer growth more effectively
changes in mouse body weight [4]: no significant difference
weight of the extracted cancer [4]: least amount of cancer tissue
half-life at 5 μM [2]: 7.1 ± 0.07 min
changes in cancer growth ([5]; 14 days): significantly inhibited cancer growth
weight of the extracted cancer ([5]; 20 mg/kg): least amount of cancer tissue

Compound: CCC(C)(C)C(=O)OC[C@@H]1O[C@H](n2cnc(N)c3c(C(N)=O)c(Br)nc2-3)[C@@H](O)[C@@H]1O [Compound Y107, ((2S,3S,4S,5S)-5-(4-amino-6-bromo-5-carbamoyl-1H-pyrrolo[2,3-d]pyrimidin-1-yl)-3,4-dihydroxytetrahydrofuran-2-yl)methyl 2,2-dimethylbutanoate]
half-life at 5 μM [1]: 26.6 ± 4.33 min
half-life at 5 μM [2]: 6.91 ± 0.11 min

Compound: CC(C)(C)C(=O)OC[C@@H]1O[C@H](n2cnc(N)c3c(C(N)=O)c(Br)nc2-3)[C@@H](O)[C@@H]1OC(=O)C(C)(C)C [Compound Y108, (2S,3S,4S,5S)-5-(4-amino-6-bromo-5-carbamoyl-1H-pyrrolo[2,3-d]pyrimidin-1-yl)-4-hydroxy-2-((pivaloyloxy)methyl)tetrahydrofuran-3-yl pivalate]
changes in cancer growth [3]: inhibited cancer growth more clearly
changes in mouse body weight [3]: no significant difference
weight of the extracted cancer [3]: least amount of cancer tissue
colony formation (Huh-7 cells): remarkably reduced
half-life at 5 μM [1]: 700 ± 42.5 min
plasma stability (in words) [1]: highest stability
colony formation (Hep3B cells): remarkably reduced
changes in cancer growth [4]: inhibited cancer growth more effectively
changes in mouse body weight [4]: no significant difference
weight of the extracted cancer [4]: least amount of cancer tissue
half-life at 5 μM [2]: 7.25 ± 0.01 min
changes in cancer growth ([5]; 14 days): significantly inhibited cancer growth
weight of the extracted cancer ([5]; 20 mg/kg): least amount of cancer tissue

Compound: CC(C)(C)c1cnc(CSc2cnc(NC(=O)C3CCNCC3)s2)o1 [SNS-032, reference compound]
changes in mouse body weight [3]: no significant difference
changes in mouse body weight [4]: no significant difference
mouse body weight ([5]; 20 mg/kg, 14 days): slightly reduced

Now from value to compound:

half-life at 5 μM [1]: 280 ± 3.06 min
half-life at 5 μM [2]: 7.77 ± 0.13 min
Compound: NC(=O)c1c(Br)nc2n([C@H]3O[C@@H](COC(=O)C45CC6CC(CC(C6)C4)C5)C(O)[C@H]3O)cnc(N)c1-2 (stereo partly drawn) [Compound Y109, ((2S,3S,4S,5S)-5-(4-amino-6-bromo-5-carbamoyl-1H-pyrrolo[2,3-d]pyrimidin-1-yl)-3,4-dihydroxytetrahydrofuran-2-yl)methyl(3S,5S,7S)-adamantane-1-carboxylate]

half-life at 5 μM [1]: 16.7 ± 0.38 min
half-life at 5 μM [2]: 32.6 ± 4.81 min
Compound: CC1CC(OC(=O)C(O)c2ccccc2)CC(C)(C)N1C (stereo not drawn) [Eucatropin, reference compound]

T1/2(min) Human [6]: 4.57 ± 0.09 min
T1/2(min) Mouse [7]: 2.85 ± 0.02 min
Compound: Ibulocydine
